# Reference: PMC3951999 (Cancer cell, 2011)
# Where two headings read alike, the source gives them in different places.
# Columns and labels:
# BRAF = BRAF (Homo sapiens, UniProt P15056); assay: RAF kinase assay, myc-tagged BRAF captured from COS cells; conditions: various GNF-2 concentrations, 30 min
# BCR-ABL Ba/F3 cells [1] = assay: Western blots of CRAF immunoprecipitates and lysates, BCR-ABL Ba/F3 cells
# [2] = system: BCR-ABL^T315I Ba/F3 cells; assay: Western blots of CRAF immunoprecipitates and lysates, BCR-ABL^T315I Ba/F3 cells
# K562 cells [3] = assay: Apoptosis; assay type: cell-based, human; conditions: PD184352 1μM, 4 days
# K562R cells [4] = assay: Apoptosis; assay type: cell-based, human; conditions: PD184352 1μM, 4 days
# [5] = system: BCR-ABL^T315I Ba/F3 allografts; assay: Tumor allograft growth, BCR-ABL^T315I Ba/F3 cells in nude mice; assay type: in vivo; conditions: BCR-ABL^T315I tumors; 25 mg/kg, oral gavage daily
# BCR-ABL Ba/F3 cells [6] = assay: Cell proliferation, BCR-ABL Ba/F3 cells; conditions: PD184352 2μM, imatinib 3μM, nilotinib 1μM, 4 days
# BV173 cells [7] = assay: Cell proliferation and apoptosis; conditions: PD184352 0.2μM, nilotinib 0.1μM, 6 days
# BV173R cells = assay: Cell proliferation and apoptosis; conditions: for cell death (apoptotic sub-G1 cells): 72 hr, absence of PD184352
# [8] = system: CD34+ hematopoietic cells from healthy individuals; assay: Cell proliferation; conditions: nilotinib 1μM, PD184352 0.3μM, 96 hr
# BCR-ABL Ba/F3 cells [9] = assay: Apoptosis; conditions: 4 days
# [10] = system: BCR-ABL^G250E/T315I, BCR-ABL^E255K/T315I and BCR-ABL^E255V/T315I Ba/F3 cells; assay: Cell proliferation, Ba/F3 cells expressing compound BCR-ABL mutants; conditions: Ba/F3 cells with compound BCR-ABL mutants; PD184352 2μM, nilotinib 1μM, 4 days
# [11] = system: BCR-ABL^T315I Ba/F3 cells; assay: Apoptosis; conditions: 4 days
# [12] = system: BCR-ABL^T315I expressing mononuclear cells from imatinib-resistant CML patients; assay: Cell proliferation; conditions: primary BCR-ABL^T315I cells; nilotinib 1μM, PD184352 0.3μM, 96 hr
# BRAF binding to CRAF = BRAF binding to CRAF with PLX4720; assay type: cell-based; conditions: Fig S3C; cells not given
# [13] = system: SW620 (KRAS^G12V), Panc1 (KRAS^G12D) and H460 (KRAS^Q61H) cells; assay: Western blot for MEK and ERK activation in KRAS mutant cells; assay type: cell-based, human; conditions: imatinib 10μM, nilotinib 1μM, dasatinib 5μM
# BV173 cells [14] = assay: Western blots of CRAF immunoprecipitates and lysates, BV173 cells; assay type: cell-based, human
# K562 cells [15] = assay: Western blots of CRAF immunoprecipitates and lysates, K562 cells; assay type: cell-based, human; conditions: for BRAF binding to CRAF: imatinib 10μM, nilotinib 1μM, dasatinib 5μM
# [16] = system: K562 cells expressing HRAS^G12V; assay type: cell-based, human; conditions: for BRAF binding to CRAF: imatinib 10μM, nilotinib 1μM, dasatinib 5μM; for MEK and ERK phosphorylation: pathway already saturated
# D04 cells (NRAS^Q61L) = conditions: western blot
# [17] = patient plasma; ref Weisberg et al., 2007; Demetri et al., 2002; cited from earlier work
# CRAF [18] = target: T1, CRAF (Homo sapiens, UniProt P04049); conditions: D04 cells; imatinib 10μM, nilotinib 1μM, dasatinib 5μM, 3 hr
# CRAF [19] = target: T1, CRAF; assay: RAF kinase assay, myc-tagged CRAF captured from COS cells; conditions: imatinib 10μM, nilotinib 1μM, dasatinib 5μM
# CRAF^T421N = CRAF^T421N (Homo sapiens, UniProt P04049, T421N); assay: RAF kinase assay, myc-tagged CRAF^T421N captured from COS cells; conditions: gatekeeper mutant; imatinib 10μM, nilotinib 1μM, dasatinib 5μM
# RAS [20] = assay: RAS-GTP capture assay, BCR-ABL Ba/F3 cells; assay type: cell-based, murine; conditions: nilotinib 1μM, 60 min
# [21] = system: Ba/F3 cells expressing BCR-ABL^G250E/T315I, BCR-ABL^E255K/T315I and BCR-ABL^E255V/T315I; assay: Western blots, Ba/F3 cells expressing compound BCR-ABL mutants; assay type: cell-based, murine; conditions: Ba/F3 cells with compound BCR-ABL mutants
# RAS [22] = assay: RAS activity in K562 cells; assay type: cell-based, human
# K562R cells [23] = assay: Western blots, K562R cells; assay type: cell-based, human
# RAS [24] = assay: RAS activity in K562R cells; assay type: cell-based, human
# BCR-ABL Ba/F3 allografts = assay: Tumor allograft growth, BCR-ABL Ba/F3 cells in nude mice; assay type: in vivo; conditions: BCR-ABL tumors; 25 mg/kg, oral gavage daily
# [25] = system: BV173R cells (BCR-ABL^T315I)
# [26] = system: mononuclear cells harbouring native BCR-ABL from newly diagnosed CML patients; conditions: primary BCR-ABL cells; nilotinib 1μM, PD184352 0.3μM, 96 hr
# [27] = system: BCR-ABL^T315I Ba/F3 cells; assay: Cell proliferation, BCR-ABL^T315I Ba/F3 cells
# CRAF [28] = target: T2, CRAF (Mus musculus, UniProt Q99N57); assay: Endogenous CRAF kinase activity in BCR-ABL Ba/F3 cells
# T2 sequence (Q99N57 whole entry): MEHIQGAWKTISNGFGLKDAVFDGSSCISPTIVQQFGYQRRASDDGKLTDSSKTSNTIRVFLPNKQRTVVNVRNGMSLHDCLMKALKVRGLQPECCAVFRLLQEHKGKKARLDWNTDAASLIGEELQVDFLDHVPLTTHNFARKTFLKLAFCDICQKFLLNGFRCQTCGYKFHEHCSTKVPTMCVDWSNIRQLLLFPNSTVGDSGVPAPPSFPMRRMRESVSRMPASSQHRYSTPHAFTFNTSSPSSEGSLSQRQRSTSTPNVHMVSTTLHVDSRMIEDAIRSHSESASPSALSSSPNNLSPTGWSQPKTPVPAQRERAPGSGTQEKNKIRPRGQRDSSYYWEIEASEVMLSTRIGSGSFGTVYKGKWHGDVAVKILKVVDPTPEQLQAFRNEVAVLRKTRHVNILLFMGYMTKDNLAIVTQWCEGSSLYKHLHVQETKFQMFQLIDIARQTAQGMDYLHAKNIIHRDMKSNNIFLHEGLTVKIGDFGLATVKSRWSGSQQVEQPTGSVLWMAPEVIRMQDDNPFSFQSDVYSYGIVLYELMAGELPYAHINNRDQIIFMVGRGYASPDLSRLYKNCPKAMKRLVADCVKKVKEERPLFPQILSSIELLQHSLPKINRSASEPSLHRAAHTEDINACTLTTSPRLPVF
# CRAF [29] = target: T2, CRAF; conditions: BCR-ABL^T315I Ba/F3 cells
# Sequence of BRAF (P15056 whole entry): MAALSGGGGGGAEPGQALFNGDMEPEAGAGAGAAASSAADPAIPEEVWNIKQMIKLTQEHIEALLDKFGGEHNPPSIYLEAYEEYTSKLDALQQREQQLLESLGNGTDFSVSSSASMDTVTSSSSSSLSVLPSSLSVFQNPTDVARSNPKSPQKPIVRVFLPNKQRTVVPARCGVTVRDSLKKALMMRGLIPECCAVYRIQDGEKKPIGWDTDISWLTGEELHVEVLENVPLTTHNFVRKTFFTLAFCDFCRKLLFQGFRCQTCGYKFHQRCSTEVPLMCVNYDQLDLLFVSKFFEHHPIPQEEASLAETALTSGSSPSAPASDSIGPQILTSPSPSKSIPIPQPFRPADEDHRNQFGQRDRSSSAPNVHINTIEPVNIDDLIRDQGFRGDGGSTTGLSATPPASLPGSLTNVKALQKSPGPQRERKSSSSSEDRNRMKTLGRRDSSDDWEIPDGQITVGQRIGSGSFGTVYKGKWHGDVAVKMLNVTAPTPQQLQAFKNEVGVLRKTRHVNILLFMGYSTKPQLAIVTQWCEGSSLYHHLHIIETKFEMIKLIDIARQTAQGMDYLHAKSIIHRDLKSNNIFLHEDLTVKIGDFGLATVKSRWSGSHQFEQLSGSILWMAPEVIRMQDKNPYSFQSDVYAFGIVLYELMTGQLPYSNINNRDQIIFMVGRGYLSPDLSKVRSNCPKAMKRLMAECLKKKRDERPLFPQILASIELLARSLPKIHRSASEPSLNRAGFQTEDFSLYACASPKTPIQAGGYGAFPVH
compound,measurement,setting,value
NC(=O)c1cccc(-c2cc(Nc3ccc(OC(F)(F)F)cc3)ncn2)c1 [GNF-2],BRAF activity in vitro,BRAF,did not inhibit BRAF activity in vitro
same,BCR-ABL (Y245) and CRKL (Y207) phosphorylation,BCR-ABL Ba/F3 cells [1]; BCR-ABL Ba/F3 cells,blocked
same,"CRAF (S338) phosphorylation, MEK and ERK activity/phosphorylation",BCR-ABL Ba/F3 cells [1]; BCR-ABL Ba/F3 cells,blocked
same,BCR-ABL and CRKL phosphorylation,[2]; BCR-ABL^T315I Ba/F3 cells,did not block BCR-ABL or CRKL phosphorylation
same,BRAF binding to CRAF,[2]; BCR-ABL^T315I Ba/F3 cells,did not induce BRAF binding to CRAF
same,"CRAF (S338) phosphorylation, MEK and ERK activity/phosphorylation",[2]; BCR-ABL^T315I Ba/F3 cells,"did not increase CRAF, MEK or ERK phosphorylation"
Oc1cc(-c2nc(-c3ccccc3)[nH]c2-c2ccncc2)ccc1Cl [L779450],BCR-ABL (Y245) and CRKL (Y207) phosphorylation,BCR-ABL Ba/F3 cells [1]; BCR-ABL Ba/F3 cells,Neither agent inhibited BCR-ABL or CRKL phosphorylation
same,BRAF binding to CRAF,BCR-ABL Ba/F3 cells [1]; BCR-ABL Ba/F3 cells,stimulated BRAF binding to CRAF
same,"CRAF (S338) phosphorylation, MEK and ERK activity/phosphorylation",BCR-ABL Ba/F3 cells [1]; BCR-ABL Ba/F3 cells,stimulated
O=C(NOCC1CC1)c1ccc(F)c(F)c1Nc1ccc(I)cc1Cl [PD184352],apoptosis / cell death,K562 cells [3],did not kill these cells
same,growth / cell death,K562R cells [4],did not affect the growth
same,tumor growth,[5],insensitive
same,cell growth,BCR-ABL Ba/F3 cells [6],did not inhibit the growth
same,cell proliferation and apoptosis,BV173 cells [7],did not inhibit cell proliferation or induce apoptosis
same,cell proliferation and apoptosis,"BV173R cells; PD184352 0.2μM, nilotinib 0.1μM, 6 days",did not inhibit cell proliferation or induce apoptosis
same,cell proliferation,[8],resistant
same,apoptosis,BCR-ABL Ba/F3 cells [9],did not induce apoptosis
same,cell proliferation,[10],did not affect proliferation
same,apoptosis,[11],did not induce apoptosis
same,cell growth,[12],did not affect the growth
CCCS(=O)(=O)Nc1ccc(F)c(C(=O)c2c[nH]c3ncc(Cl)cc23)c1F [PLX4720],BRAF binding to CRAF,BRAF binding to CRAF,did not induce strong binding of BRAF to CRAF
Cn1c(Nc2ccc(C(F)(F)F)cc2)nc2cc(Oc3ccnc(-c4ncc(C(F)(F)F)[nH]4)c3)ccc21 [RAF265],cell death (apoptotic sub-G1 cells),BV173R cells,induced cell death
same,BCR-ABL and CRKL phosphorylation,[2]; BCR-ABL^T315I Ba/F3 cells,did not inhibit BCR-ABL or CRKL phosphorylation
same,BRAF binding to CRAF,[2]; BCR-ABL^T315I Ba/F3 cells,induced BRAF binding to CRAF
CN(C)CCOc1ccc(-c2nc(-c3ccncc3)c(-c3ccc4c(c3)CC/C4=N\O)[nH]2)cc1 [SB590885],BCR-ABL (Y245) and CRKL (Y207) phosphorylation,BCR-ABL Ba/F3 cells [1]; BCR-ABL Ba/F3 cells,Neither agent inhibited BCR-ABL or CRKL phosphorylation
same,BRAF binding to CRAF,BCR-ABL Ba/F3 cells [1]; BCR-ABL Ba/F3 cells,stimulated BRAF binding to CRAF
same,"CRAF (S338) phosphorylation, MEK and ERK activity/phosphorylation",BCR-ABL Ba/F3 cells [1]; BCR-ABL Ba/F3 cells,stimulated
Cc1nc(Nc2ncc(C(=O)Nc3c(C)cccc3Cl)s2)cc(N2CCN(CCO)CC2)n1 [dasatinib],MEK and ERK activation,[13],activated MEK and ERK
same,BCR-ABL and CRKL phosphorylation,BV173 cells [14],inhibited BCR-ABL and CRKL phosphorylation
same,BRAF binding to CRAF,BV173 cells [14],did not induce BRAF binding to CRAF
same,MEK and ERK activity,BV173 cells [14],inhibited MEK and ERK
same,BRAF binding to CRAF,K562 cells [15],did not induce BRAF binding to CRAF
same,BRAF binding to CRAF,[16],induced BRAF binding to CRAF
same,MEK and ERK phosphorylation,[16],did not increase MEK and ERK phosphorylation
same,lowest concentration stimulating robust MEK and ERK phosphorylation,D04 cells (NRAS^Q61L),100 nM
same,peak plasma/serum concentration,[17],~90 nM
same,endogenous CRAF kinase activity,CRAF [18],activated
same,CRAF kinase activity in vitro,CRAF [19],inhibited
same,CRAF^T421N kinase activity in vitro,CRAF^T421N,resistant
Cc1cn(-c2cc(NC(=O)c3ccc(C)c(Nc4nccc(-c5cccnc5)n4)c3)cc(C(F)(F)F)c2)cn1 [nilotinib],MEK and ERK activation,[13],activated MEK and ERK
same,BCR-ABL and CRKL phosphorylation,BV173 cells [14],inhibited BCR-ABL and CRKL phosphorylation
same,BRAF binding to CRAF,BV173 cells [14],did not induce BRAF binding to CRAF
same,MEK and ERK activity,BV173 cells [14],inhibited MEK and ERK
same,RAS activity (RAS-GTP),RAS [20],blocked RAS activity
same,BCR-ABL and CRKL phosphorylation,K562 cells [15],inhibited BCR-ABL and CRKL phosphorylation
same,"CRAF, MEK and ERK phosphorylation",K562 cells [15],"inhibited CRAF, MEK and ERK phosphorylation"
same,BRAF binding to CRAF,K562 cells [15],did not induce BRAF binding to CRAF
same,BRAF binding to CRAF,[16],induced BRAF binding to CRAF
same,MEK and ERK phosphorylation,[16],did not increase MEK and ERK phosphorylation
same,BCR-ABL and CRKL phosphorylation,[21],did not inhibit BCR-ABL or CRKL phosphorylation
same,"BRAF binding to CRAF, MEK and ERK activation",[21],induced BRAF binding to CRAF as well as MEK and ERK activation
same,RAS activity,RAS [22],suppressed RAS activity
same,BCR-ABL and CRKL phosphorylation,K562R cells [23],blocked BCR-ABL and CRKL phosphorylation
same,"CRAF, MEK and ERK phosphorylation",K562R cells [23],"did not block CRAF, MEK or ERK phosphorylation"
same,RAS activity,RAS [24],did not inhibit RAS
same,apoptosis / cell death,K562 cells [3],induced apoptosis
same,growth / cell death,K562R cells [4],did not affect the growth
same,tumor growth,BCR-ABL Ba/F3 allografts,strongly suppressed
same,tumor growth,[5],insensitive
same,lowest concentration stimulating robust MEK and ERK phosphorylation,D04 cells (NRAS^Q61L),100 nM
same,BRAF binding to CRAF,[25],induced BRAF binding to CRAF
same,MEK and ERK activity,[25],activated MEK and ERK
same,cell proliferation,[26],inhibited the proliferation
same,peak plasma/serum concentration,[17],~4000 nM
same,cell growth,BCR-ABL Ba/F3 cells [6],sensitive
same,endogenous CRAF kinase activity,CRAF [18],activated
same,cell growth,[27],resistant
same,CRAF activity,CRAF [28],blocked CRAF activity
same,cell proliferation and apoptosis,BV173 cells [7],inhibited cell proliferation and induced apoptosis
same,CRAF kinase activity in vitro,CRAF [19],inhibited
same,CRAF activity,CRAF [29],activated CRAF
same,cell proliferation,[8],resistant
same,CRAF^T421N kinase activity in vitro,CRAF^T421N,resistant
same,apoptosis,BCR-ABL Ba/F3 cells [9],induced apoptosis
same,cell proliferation,[10],did not affect proliferation
same,BRAF binding to CRAF,BCR-ABL Ba/F3 cells [1],did not affect BRAF binding to CRAF
same,BCR-ABL (Y245) and CRKL (Y207) phosphorylation,BCR-ABL Ba/F3 cells [1]; BCR-ABL Ba/F3 cells,blocked
same,cell growth,[12],did not affect the growth
same,BRAF binding to CRAF,[2],enhanced BRAF binding to CRAF
same,"CRAF (S338) phosphorylation, MEK and ERK activity/phosphorylation",[2],"induced CRAF phosphorylation on S338 (Fig 3C) and activated CRAF (Fig 3D), MEK and ERK"
same,BCR-ABL and CRKL phosphorylation,[2]; BCR-ABL^T315I Ba/F3 cells,did not inhibit BCR-ABL or CRKL phosphorylation
CNC(=O)c1cc(Oc2ccc(NC(=O)Nc3ccc(Cl)c(C(F)(F)F)c3)cc2)ccn1 [sorafenib],cell death (apoptotic sub-G1 cells),BV173R cells,induced cell death
